Reference: the NIST ThermoML archive (doi:10.1021/je100715x)

Experiments:
[1] = xn = mol fraction of the nth substance listed; conditions: 101 kPa, Liquid; for viscosity: Capillary tube (Ostwald / Ubbelohde) method; for mass density: Vibrating tube method
[2] = refractive index (Na D-line) (dimensionless); xn = mol fraction of the nth substance listed; conditions: 101 kPa, Liquid, Standard Abbe refractometry

CCOC(=O)C(=O)OCC [diethyl ethanedioate] + CC(=O)c1ccccc1
Conditions | mass density, 303.15 K [kg/m3] | mass density, 308.15 K [kg/m3] | mass density, 313.15 K [kg/m3] | refractive index, 303.15 K | refractive index, 308.15 K | refractive index, 313.15 K | viscosity, 303.15 K [mPa·s] | viscosity, 308.15 K [mPa·s] | viscosity, 313.15 K [mPa·s]
[1], x1 = 0.0875 | 1024.1 | 1021 | 1017.4 | – | – | – | 1.557 | 1.405 | 1.308
[1], x1 = 0.1478 | 1026.7 | 1023.6 | 1019.9 | – | – | – | 1.578 | 1.418 | 1.317
[1], x1 = 0.2538 | 1031.2 | 1027.9 | 1024 | – | – | – | 1.61 | 1.439 | 1.333
[1], x1 = 0.3443 | 1034.9 | 1031.5 | 1027.5 | – | – | – | 1.628 | 1.454 | 1.344
[1], x1 = 0.4591 | 1039.9 | 1036.2 | 1032 | – | – | – | 1.645 | 1.467 | 1.355
[1], x1 = 0.5501 | 1044 | 1040.1 | 1035.7 | – | – | – | 1.655 | 1.477 | 1.362
[1], x1 = 0.6601 | 1049.3 | 1045.2 | 1040.2 | – | – | – | 1.657 | 1.485 | 1.366
[1], x1 = 0.7601 | 1054.3 | 1049.8 | 1044.5 | – | – | – | 1.654 | 1.487 | 1.37
[1], x1 = 0.8846 | 1060.6 | 1055.6 | 1049.9 | – | – | – | 1.648 | 1.489 | 1.373
[1], x1 = 0.95 | 1063.8 | 1058.5 | 1052.5 | – | – | – | 1.635 | 1.49 | 1.375
[2], x1 = 0.0875 | – | – | – | 1.5171 | 1.5151 | 1.5133 | – | – | –
[2], x1 = 0.1478 | – | – | – | 1.5087 | 1.5068 | 1.5053 | – | – | –
[2], x1 = 0.2538 | – | – | – | 1.4945 | 1.4928 | 1.4912 | – | – | –
[2], x1 = 0.3443 | – | – | – | 1.4826 | 1.4811 | 1.4796 | – | – | –
[2], x1 = 0.4591 | – | – | – | 1.4685 | 1.4671 | 1.4656 | – | – | –
[2], x1 = 0.5501 | – | – | – | 1.4574 | 1.456 | 1.4544 | – | – | –
[2], x1 = 0.6601 | – | – | – | 1.4439 | 1.4424 | 1.4411 | – | – | –
[2], x1 = 0.7601 | – | – | – | 1.4325 | 1.4309 | 1.4293 | – | – | –
[2], x1 = 0.8846 | – | – | – | 1.4187 | 1.4167 | 1.4154 | – | – | –
[2], x1 = 0.95 | – | – | – | 1.4117 | 1.4095 | 1.4079 | – | – | –
